Consider eight cell lines from the supplement of paper PMC10307832.

Test in all cases: relative viability (nuclei count vs DMSO), 5 days (fraction); higher = more cells survive
Compound in the test “Wnt-C59 + Lapatinib”: CC1=NC=CC(=C1)C2=CC=C(C=C2)CC(=O)NC3=CC=C(C=C3)C4=CN=CC=C4 [Wnt-C59] + CS(=O)(=O)CCNCc1ccc(-c2ccc3ncnc(Nc4ccc(OCc5cccc(F)c5)c(Cl)c4)c3c2)o1 [Lapatinib] (partner 2 µM)
The method, boiled down: (§1)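 Each reported value is a median over duplicate plates. It expresses relative viability: treated-well nuclei count divided by vehicle-well nuclei count. Lung cancer cell lines in 1536-well plates were dosed by pin tool a day after seeding, alone with one drug or with a fixed anchor-drug dose plus five library-drug doses (not always all listed) in √10 steps, and nuclei were counted after 5 days.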

Compound in the test “Wnt-C59 + Alpelisib”: CC1=NC=CC(=C1)C2=CC=C(C=C2)CC(=O)NC3=CC=C(C=C3)C4=CN=CC=C4 [Wnt-C59] + Cc1nc(NC(=O)N2CCC[C@H]2C(N)=O)sc1-c1ccnc(C(C)(C)C(F)(F)F)c1 [Alpelisib] (partner 2 µM)
The gist of the method: as §1

Compound in the test “Lapatinib + Foretinib”: CS(=O)(=O)CCNCc1ccc(-c2ccc3ncnc(Nc4ccc(OCc5cccc(F)c5)c(Cl)c4)c3c2)o1 [Lapatinib] + COc1cc2c(Oc3ccc(NC(=O)C4(C(=O)Nc5ccc(F)cc5)CC4)cc3F)ccnc2cc1OCCCN1CCOCC1 [Foretinib] (partner 0.25 µM)
The method, boiled down: as §1

Compound in the test “Lapatinib + Phenformin”: CS(=O)(=O)CCNCc1ccc(-c2ccc3ncnc(Nc4ccc(OCc5cccc(F)c5)c(Cl)c4)c3c2)o1 [Lapatinib] + N=C(N)NC(=N)NCCc1ccccc1 [Phenformin] (partner 250 µM)
The method, boiled down:
as §1

On to 201T, for which the relative viability amounted to 0.985 with Wnt-C59 + Lapatinib (first compound 0.001 µM); 1.04 with Wnt-C59 + Lapatinib (first compound 0.01 µM); 1.03 in the test with Wnt-C59 + Lapatinib (first compound 0.03162 µM); 0.991 with Wnt-C59 + Lapatinib (first compound 0.1 µM); 1.06 in the test with Wnt-C59 + Alpelisib (first compound 0.001 µM); 1.01 with Wnt-C59 + Alpelisib (first compound 0.01 µM). The relative viability in the test with Wnt-C59 + Alpelisib (first compound 0.03162 µM) was 0.99; in the test with Wnt-C59 + Alpelisib (first compound 0.1 µM), 1; with Lapatinib + Foretinib (first compound 0.02 µM), 1.18; with Lapatinib + Foretinib (first compound 0.2 µM), 1.03; with Lapatinib + Foretinib (first compound 0.6325 µM) it was 1.03; in the test with Lapatinib + Foretinib (first compound 2 µM), 0.76. Further, the relative viability with Lapatinib + Phenformin (first compound 0.02 µM) turned out to be 0.387; with Lapatinib + Phenformin (first compound 0.06325 µM), 0.343; with Lapatinib + Phenformin (first compound 0.2 µM), 0.438; with Lapatinib + Phenformin (first compound 0.6325 µM) it was 0.44; in the test with Lapatinib + Phenformin (first compound 2 µM) it was 0.431.
For A549, the relative viability in the test with Wnt-C59 + Lapatinib (first compound 0.001 µM) is 1.04; with Wnt-C59 + Lapatinib (first compound 0.01 µM), 1.02; with Wnt-C59 + Lapatinib (first compound 0.03162 µM), 0.966; in the test with Wnt-C59 + Lapatinib (first compound 0.1 µM), 0.988; in the test with Wnt-C59 + Alpelisib (first compound 0.001 µM) it was 0.978; with Wnt-C59 + Alpelisib (first compound 0.01 µM), 0.75. Moreover, the relative viability was 0.712 with Wnt-C59 + Alpelisib (first compound 0.03162 µM); 0.682 in the test with Wnt-C59 + Alpelisib (first compound 0.1 µM); 0.952 in the test with Lapatinib + Foretinib (first compound 0.02 µM); 0.872 with Lapatinib + Foretinib (first compound 0.06325 µM); 1.04 in the test with Lapatinib + Foretinib (first compound 0.2 µM); 0.918 with Lapatinib + Foretinib (first compound 0.6325 µM). Besides, the relative viability with Lapatinib + Foretinib (first compound 2 µM) amounted to 0.877; in the test with Lapatinib + Phenformin (first compound 0.2 µM), 0.192; with Lapatinib + Phenformin (first compound 0.6325 µM), 0.137; in the test with Lapatinib + Phenformin (first compound 2 µM), 0.112.
For A-427, the relative viability in the test with Wnt-C59 + Lapatinib (first compound 0.001 µM) is 1.04; with Wnt-C59 + Lapatinib (first compound 0.01 µM), 1.01; in the test with Wnt-C59 + Lapatinib (first compound 0.03162 µM), 1.09; in the test with Wnt-C59 + Lapatinib (first compound 0.1 µM), 1.11; with Wnt-C59 + Alpelisib (first compound 0.001 µM), 1.07; with Wnt-C59 + Alpelisib (first compound 0.01 µM) it was 1. The relative viability with Wnt-C59 + Alpelisib (first compound 0.03162 µM) worked out at 1.14; with Wnt-C59 + Alpelisib (first compound 0.1 µM) it was 1.08; with Lapatinib + Foretinib (first compound 0.06325 µM) it was 0.905; with Lapatinib + Foretinib (first compound 0.2 µM), 1.1; with Lapatinib + Foretinib (first compound 0.6325 µM), 1.08; with Lapatinib + Foretinib (first compound 2 µM), 0.859. For the same cell line, the relative viability with Lapatinib + Phenformin (first compound 0.06325 µM) was found to be 0.279; in the test with Lapatinib + Phenformin (first compound 0.2 µM), 0.346; with Lapatinib + Phenformin (first compound 0.6325 µM) it was 0.317; in the test with Lapatinib + Phenformin (first compound 2 µM), 0.367.
On to ABC-1, for which the relative viability amounted to 1.1 in the test with Wnt-C59 + Lapatinib (first compound 0.001 µM); 1.18 with Wnt-C59 + Lapatinib (first compound 0.01 µM); 1.14 with Wnt-C59 + Lapatinib (first compound 0.03162 µM); 1.19 in the test with Wnt-C59 + Lapatinib (first compound 0.1 µM); 1.26 in the test with Wnt-C59 + Alpelisib (first compound 0.001 µM); 1.01 with Wnt-C59 + Alpelisib (first compound 0.01 µM). Also, the relative viability with Wnt-C59 + Alpelisib (first compound 0.03162 µM) worked out at 0.718; with Wnt-C59 + Alpelisib (first compound 0.1 µM), 0.876; with Lapatinib + Foretinib (first compound 0.02 µM) it was 0.949; in the test with Lapatinib + Foretinib (first compound 0.06325 µM) it was 0.912; with Lapatinib + Foretinib (first compound 0.2 µM) it was 1.16; with Lapatinib + Foretinib (first compound 0.6325 µM), 1.32. Also, the relative viability was determined as 0.964 with Lapatinib + Foretinib (first compound 2 µM); 0.25 in the test with Lapatinib + Phenformin (first compound 0.02 µM); 0.25 in the test with Lapatinib + Phenformin (first compound 0.06325 µM); 0.223 with Lapatinib + Phenformin (first compound 0.2 µM); 0.215 in the test with Lapatinib + Phenformin (first compound 0.6325 µM); 0.21 in the test with Lapatinib + Phenformin (first compound 2 µM).
As to BEN, the relative viability with Wnt-C59 + Lapatinib (first compound 0.001 µM) is 0.825; with Wnt-C59 + Lapatinib (first compound 0.01 µM), 0.804; in the test with Wnt-C59 + Lapatinib (first compound 0.03162 µM), 0.736; with Wnt-C59 + Lapatinib (first compound 0.1 µM) it was 0.641; with Wnt-C59 + Alpelisib (first compound 0.001 µM), 1.11; with Wnt-C59 + Alpelisib (first compound 0.01 µM) it was 0.993. Also, the relative viability is 1.37 in the test with Wnt-C59 + Alpelisib (first compound 0.03162 µM); 0.957 in the test with Wnt-C59 + Alpelisib (first compound 0.1 µM); 0.667 in the test with Lapatinib + Foretinib (first compound 0.06325 µM); 0.653 with Lapatinib + Foretinib (first compound 0.2 µM); 0.763 in the test with Lapatinib + Foretinib (first compound 0.6325 µM); 0.554 with Lapatinib + Foretinib (first compound 2 µM). The relative viability with Lapatinib + Phenformin (first compound 0.06325 µM) was found to be 0.301; with Lapatinib + Phenformin (first compound 0.2 µM), 0.26; with Lapatinib + Phenformin (first compound 0.6325 µM) it was 0.241; in the test with Lapatinib + Phenformin (first compound 2 µM) it was 0.229.
For the cell line CAL-12T, the relative viability with Wnt-C59 + Lapatinib (first compound 0.001 µM) was determined as 0.614; with Wnt-C59 + Lapatinib (first compound 0.03162 µM), 0.761; in the test with Wnt-C59 + Lapatinib (first compound 0.1 µM), 0.625; with Wnt-C59 + Alpelisib (first compound 0.001 µM), 1.25; with Wnt-C59 + Alpelisib (first compound 0.01 µM), 1.32; with Wnt-C59 + Alpelisib (first compound 0.03162 µM), 1.31. For the same cell line, the relative viability turned out to be 1.1 with Wnt-C59 + Alpelisib (first compound 0.1 µM); 1.12 with Lapatinib + Foretinib (first compound 0.06325 µM); 1.03 in the test with Lapatinib + Foretinib (first compound 0.2 µM); 1.02 with Lapatinib + Foretinib (first compound 0.6325 µM); 0.954 with Lapatinib + Foretinib (first compound 2 µM); 0.474 with Lapatinib + Phenformin (first compound 0.06325 µM). Moreover, the values for the relative viability with Lapatinib + Phenformin (first compound 0.2 µM), with Lapatinib + Phenformin (first compound 0.6325 µM) and with Lapatinib + Phenformin (first compound 2 µM) were 0.5, 0.404 and 0.337, respectively.
As to COR-L23, the relative viability turned out to be 1.04 with Wnt-C59 + Lapatinib (first compound 0.001 µM); 0.851 in the test with Wnt-C59 + Lapatinib (first compound 0.01 µM); 1.05 in the test with Wnt-C59 + Lapatinib (first compound 0.03162 µM); 0.797 with Wnt-C59 + Lapatinib (first compound 0.1 µM); 0.776 in the test with Wnt-C59 + Alpelisib (first compound 0.001 µM); 0.752 with Wnt-C59 + Alpelisib (first compound 0.01 µM). Besides, the relative viability with Wnt-C59 + Alpelisib (first compound 0.03162 µM) stood at 0.775; with Wnt-C59 + Alpelisib (first compound 0.1 µM), 0.725; with Lapatinib + Foretinib (first compound 0.02 µM), 0.949; with Lapatinib + Foretinib (first compound 0.06325 µM), 0.872; with Lapatinib + Foretinib (first compound 0.2 µM), 0.918; with Lapatinib + Foretinib (first compound 0.6325 µM) it was 0.971. The relative viability in the test with Lapatinib + Foretinib (first compound 2 µM) is 0.891; with Lapatinib + Phenformin (first compound 0.02 µM), 0.419; with Lapatinib + Phenformin (first compound 0.06325 µM) it was 0.421; with Lapatinib + Phenformin (first compound 0.2 µM) it was 0.474; in the test with Lapatinib + Phenformin (first compound 0.6325 µM), 0.455; with Lapatinib + Phenformin (first compound 2 µM), 0.42.
As for COR-L 105, the relative viability in the test with Wnt-C59 + Lapatinib (first compound 0.001 µM) is 0.342; with Wnt-C59 + Lapatinib (first compound 0.01 µM), 0.381; with Wnt-C59 + Lapatinib (first compound 0.03162 µM), 0.407; with Wnt-C59 + Lapatinib (first compound 0.1 µM), 0.358; with Wnt-C59 + Alpelisib (first compound 0.001 µM) it was 1.19; in the test with Wnt-C59 + Alpelisib (first compound 0.01 µM) it was 1.03. The relative viability with Wnt-C59 + Alpelisib (first compound 0.03162 µM) is 0.93; with Wnt-C59 + Alpelisib (first compound 0.1 µM), 0.78; with Lapatinib + Foretinib (first compound 0.02 µM) it was 0.987; with Lapatinib + Foretinib (first compound 0.06325 µM), 0.928; in the test with Lapatinib + Foretinib (first compound 0.2 µM), 0.689; with Lapatinib + Foretinib (first compound 0.6325 µM), 0.491. Moreover, the relative viability with Lapatinib + Foretinib (first compound 2 µM) is 0.582; in the test with Lapatinib + Phenformin (first compound 0.02 µM) it was 0.486; with Lapatinib + Phenformin (first compound 0.06325 µM), 0.336; with Lapatinib + Phenformin (first compound 0.2 µM), 0.418; with Lapatinib + Phenformin (first compound 0.6325 µM), 0.289; with Lapatinib + Phenformin (first compound 2 µM) it was 0.275.
